Experimental data as given in ChEMBL document CHEMBL1201862, “PubChem BioAssay data set” (2004).
The source made the active and inactive calls.

What was measured:
Assay type in all cases: functional
Prothrombin = Prothrombin (Homo sapiens, UniProt P00734); test: Thrombin 1536 HTS Dose Response Confirmation. [Related pubchem assays: 1046 (Thrombin 1536 HTS; hits were confirmed in this assay)]
[1] = molecular target: T1, Tyrosine-protein phosphatase non-receptor type 22 (Homo sapiens, UniProt Q9Y2R2)
T1 sequence (Q9Y2R2 whole entry): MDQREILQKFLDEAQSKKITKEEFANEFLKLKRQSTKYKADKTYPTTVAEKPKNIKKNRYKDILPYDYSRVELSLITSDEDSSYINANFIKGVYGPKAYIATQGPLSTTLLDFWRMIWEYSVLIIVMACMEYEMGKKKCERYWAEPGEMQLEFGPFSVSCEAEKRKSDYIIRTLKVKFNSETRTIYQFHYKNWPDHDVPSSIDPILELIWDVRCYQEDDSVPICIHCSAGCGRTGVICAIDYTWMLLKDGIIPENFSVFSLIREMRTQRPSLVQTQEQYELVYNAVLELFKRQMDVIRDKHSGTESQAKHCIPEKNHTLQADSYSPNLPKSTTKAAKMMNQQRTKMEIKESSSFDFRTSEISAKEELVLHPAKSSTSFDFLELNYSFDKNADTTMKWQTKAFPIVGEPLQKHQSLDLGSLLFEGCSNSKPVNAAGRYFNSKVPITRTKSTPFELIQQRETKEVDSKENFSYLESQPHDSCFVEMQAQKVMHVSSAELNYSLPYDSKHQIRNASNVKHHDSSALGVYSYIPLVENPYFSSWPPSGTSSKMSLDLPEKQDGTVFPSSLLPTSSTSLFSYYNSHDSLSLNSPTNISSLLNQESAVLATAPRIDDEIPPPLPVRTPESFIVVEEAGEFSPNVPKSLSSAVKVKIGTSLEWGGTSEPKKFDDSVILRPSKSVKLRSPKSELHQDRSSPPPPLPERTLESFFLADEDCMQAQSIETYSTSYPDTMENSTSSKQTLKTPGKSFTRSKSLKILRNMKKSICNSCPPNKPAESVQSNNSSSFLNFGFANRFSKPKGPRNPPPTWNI

Protein RecA = molecular target: T2, Protein RecA (Mycobacterium tuberculosis, UniProt P9WHJ3); test: Fluorescence Cell-Free Homogeneous Dose Retest to Identify Inhibitors of RecA-Intein Splicing Activity. [Related pubchem assays (depositor defined):AID2097, AID2223, AID489010, AID492950]
T2 sequence (P9WHJ3 whole entry): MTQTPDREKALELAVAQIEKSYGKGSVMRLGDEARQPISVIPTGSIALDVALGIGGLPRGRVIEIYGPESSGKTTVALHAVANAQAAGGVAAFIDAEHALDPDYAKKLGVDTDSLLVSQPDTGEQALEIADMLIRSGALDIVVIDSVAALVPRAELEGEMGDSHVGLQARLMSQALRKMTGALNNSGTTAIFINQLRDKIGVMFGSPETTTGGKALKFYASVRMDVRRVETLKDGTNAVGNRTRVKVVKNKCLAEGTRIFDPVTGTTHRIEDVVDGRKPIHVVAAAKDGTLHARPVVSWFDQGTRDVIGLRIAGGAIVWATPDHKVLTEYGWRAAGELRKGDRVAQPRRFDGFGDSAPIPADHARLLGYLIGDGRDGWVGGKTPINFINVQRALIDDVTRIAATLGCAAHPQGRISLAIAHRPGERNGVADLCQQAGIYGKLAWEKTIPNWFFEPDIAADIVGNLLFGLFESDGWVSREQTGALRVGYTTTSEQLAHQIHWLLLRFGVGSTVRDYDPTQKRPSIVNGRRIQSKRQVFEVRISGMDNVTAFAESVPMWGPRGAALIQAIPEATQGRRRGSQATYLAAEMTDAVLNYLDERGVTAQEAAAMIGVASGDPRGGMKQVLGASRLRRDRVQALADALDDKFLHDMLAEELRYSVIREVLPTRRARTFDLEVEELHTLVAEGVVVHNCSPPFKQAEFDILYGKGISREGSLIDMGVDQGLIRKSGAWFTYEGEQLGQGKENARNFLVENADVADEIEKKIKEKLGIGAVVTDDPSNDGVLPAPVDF

[2] = molecular target: T3, Replicative DNA helicase DnaB (Mycobacterium tuberculosis, UniProt P9WMR3); test: DnaB intein splicing inhibitors, dose response, biochemical, cell-free fluorescence (AID 449749)
T3 sequence (P9WMR3 whole entry): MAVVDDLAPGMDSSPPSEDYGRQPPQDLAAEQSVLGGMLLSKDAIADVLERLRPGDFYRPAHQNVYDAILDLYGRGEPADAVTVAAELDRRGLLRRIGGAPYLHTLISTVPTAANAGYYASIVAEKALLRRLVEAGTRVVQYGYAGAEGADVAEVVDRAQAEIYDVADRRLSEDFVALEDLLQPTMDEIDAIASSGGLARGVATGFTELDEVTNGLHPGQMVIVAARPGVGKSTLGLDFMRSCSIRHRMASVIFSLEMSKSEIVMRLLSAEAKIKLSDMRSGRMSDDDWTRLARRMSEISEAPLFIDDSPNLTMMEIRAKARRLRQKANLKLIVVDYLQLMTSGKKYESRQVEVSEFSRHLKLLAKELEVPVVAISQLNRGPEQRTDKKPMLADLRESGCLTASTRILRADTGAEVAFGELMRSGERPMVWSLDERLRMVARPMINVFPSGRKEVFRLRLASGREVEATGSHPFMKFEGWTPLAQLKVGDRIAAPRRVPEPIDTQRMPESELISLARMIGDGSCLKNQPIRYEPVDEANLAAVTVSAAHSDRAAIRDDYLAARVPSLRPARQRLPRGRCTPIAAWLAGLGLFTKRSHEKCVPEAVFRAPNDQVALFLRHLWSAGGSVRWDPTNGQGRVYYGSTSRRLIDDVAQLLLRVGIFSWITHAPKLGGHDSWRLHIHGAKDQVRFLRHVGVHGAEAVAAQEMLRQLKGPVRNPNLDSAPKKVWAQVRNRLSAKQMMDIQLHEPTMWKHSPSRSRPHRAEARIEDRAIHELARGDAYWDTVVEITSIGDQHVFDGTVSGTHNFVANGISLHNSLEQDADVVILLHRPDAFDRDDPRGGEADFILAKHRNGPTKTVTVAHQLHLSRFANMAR

[3] = molecular target: Tyrosine-protein phosphatase non-receptor type 7 (Homo sapiens, UniProt P35236)
Chain of Tyrosine-protein phosphatase non-receptor type 7 (P35236 whole entry): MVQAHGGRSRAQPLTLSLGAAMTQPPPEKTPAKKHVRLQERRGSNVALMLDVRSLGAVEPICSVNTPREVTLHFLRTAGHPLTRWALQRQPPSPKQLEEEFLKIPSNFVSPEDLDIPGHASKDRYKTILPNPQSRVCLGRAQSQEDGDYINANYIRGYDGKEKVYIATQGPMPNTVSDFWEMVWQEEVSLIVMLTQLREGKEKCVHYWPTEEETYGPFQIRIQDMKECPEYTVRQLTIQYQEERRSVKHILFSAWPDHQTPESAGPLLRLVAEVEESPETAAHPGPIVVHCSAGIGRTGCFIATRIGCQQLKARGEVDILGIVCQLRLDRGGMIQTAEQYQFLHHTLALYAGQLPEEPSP

[4] = molecular target: T1, Tyrosine-protein phosphatase non-receptor type 22; remark: listed apart in the source
Cannabinoid receptor 1 [5] = molecular target: T4, Cannabinoid receptor 1 (Homo sapiens, UniProt P21554); test: SAR analysis of agonists of the Cannabinoid Receptor 1 using an Image-Based Assay - Set 4. [Related pubchem assays (depositor defined):AID2013, AID2026]
T4 sequence (P21554 whole entry): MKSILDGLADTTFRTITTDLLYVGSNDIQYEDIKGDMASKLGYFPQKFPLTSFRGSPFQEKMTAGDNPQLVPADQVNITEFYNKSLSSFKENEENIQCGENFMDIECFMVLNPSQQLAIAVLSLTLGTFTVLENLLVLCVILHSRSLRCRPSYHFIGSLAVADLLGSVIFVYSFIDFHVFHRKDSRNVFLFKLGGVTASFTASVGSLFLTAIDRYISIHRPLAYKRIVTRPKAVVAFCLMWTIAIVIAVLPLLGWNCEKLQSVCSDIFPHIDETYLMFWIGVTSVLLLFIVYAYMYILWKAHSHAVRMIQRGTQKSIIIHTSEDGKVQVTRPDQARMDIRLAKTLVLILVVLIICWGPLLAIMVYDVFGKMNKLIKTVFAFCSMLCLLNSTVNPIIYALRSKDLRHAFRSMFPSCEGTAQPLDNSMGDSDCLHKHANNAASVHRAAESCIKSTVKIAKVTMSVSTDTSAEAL

Cannabinoid receptor 2 [6] = molecular target: T5, Cannabinoid receptor 2 (Homo sapiens, UniProt P34972); test: SAR analysis of agonists of the Cannabinoid Receptor 2 using an Image-Based Assay - Set 3. [Related pubchem assays (depositor defined):AID2013, AID2026]
T5 sequence (P34972 whole entry): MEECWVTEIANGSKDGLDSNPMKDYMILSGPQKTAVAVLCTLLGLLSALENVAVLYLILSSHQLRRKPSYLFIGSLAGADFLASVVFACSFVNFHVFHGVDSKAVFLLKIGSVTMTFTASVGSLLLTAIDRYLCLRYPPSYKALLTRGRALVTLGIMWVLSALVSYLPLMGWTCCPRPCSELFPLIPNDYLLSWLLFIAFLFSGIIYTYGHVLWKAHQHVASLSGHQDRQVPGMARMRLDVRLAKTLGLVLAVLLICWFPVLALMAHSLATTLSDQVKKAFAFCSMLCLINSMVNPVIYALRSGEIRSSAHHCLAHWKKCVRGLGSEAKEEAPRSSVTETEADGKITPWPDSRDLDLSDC

[7] = molecular target: T6, G-protein coupled receptor 35 (Homo sapiens, UniProt Q9HC97); test: SAR analysis of Antagonists of the GPR35 Receptor using an Image-Based Assay - Set 6. [Related pubchem assays (depositor defined):AID2013, AID2026]
T6 sequence (Q9HC97 whole entry): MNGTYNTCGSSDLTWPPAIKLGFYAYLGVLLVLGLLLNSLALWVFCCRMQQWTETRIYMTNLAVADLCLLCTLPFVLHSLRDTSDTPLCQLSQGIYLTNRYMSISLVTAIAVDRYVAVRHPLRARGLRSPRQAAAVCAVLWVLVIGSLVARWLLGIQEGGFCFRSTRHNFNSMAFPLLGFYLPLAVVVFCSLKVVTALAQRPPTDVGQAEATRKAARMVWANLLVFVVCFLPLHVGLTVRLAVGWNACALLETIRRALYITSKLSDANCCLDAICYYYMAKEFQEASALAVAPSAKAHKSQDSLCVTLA

Cannabinoid receptor 1 [8] = molecular target: T4, Cannabinoid receptor 1; test: SAR analysis of antagonists of the Cannabinoid Receptor 1 using an Image-Based Assay - Set 4. [Related pubchem assays (depositor defined):AID2013, AID2026]
[9] = molecular target: T6, G-protein coupled receptor 35; test: SAR analysis of Agonists of the GPR35 Receptor using an Image-Based Assay - Set 4. [Related pubchem assays (depositor defined):AID2013, AID2026]
[10] = molecular target: G-protein coupled receptor 55 (Homo sapiens, UniProt Q9Y2T6); test: SAR Analysis of Selective Antagonists of GPR55 using an Image-Based Assay - Set 4. [Related pubchem assays (depositor defined):AID2013, AID2026];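 further: antagonism of response to 5 µM lysophosphatidylinositol agonist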
Chain of G-protein coupled receptor 55 (Q9Y2T6 whole entry): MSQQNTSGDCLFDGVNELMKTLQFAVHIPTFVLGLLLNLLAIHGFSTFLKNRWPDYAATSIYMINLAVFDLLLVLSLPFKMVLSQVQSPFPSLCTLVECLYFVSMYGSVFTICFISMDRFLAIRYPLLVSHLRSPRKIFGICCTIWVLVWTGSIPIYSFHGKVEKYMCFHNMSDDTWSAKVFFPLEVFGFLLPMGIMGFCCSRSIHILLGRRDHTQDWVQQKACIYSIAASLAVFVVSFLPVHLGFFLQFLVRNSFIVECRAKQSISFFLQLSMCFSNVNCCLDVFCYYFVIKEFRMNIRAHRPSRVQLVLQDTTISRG

Cannabinoid receptor 2 [11] = molecular target: T5, Cannabinoid receptor 2; test: SAR analysis of antagonists of the Cannabinoid Receptor 2 using an Image-Based Assay - Set 3. [Related pubchem assays (depositor defined):AID2013, AID2026]

| SMILES | IC50 (Prothrombin) | IC50 [1] | EC50 (Protein RecA) | AC50 [2] | IC50 [3] | IC50 [4] | EC50 (Cannabinoid receptor 1 [5]) | EC50 (Cannabinoid receptor 2 [6]) | IC50 [7] | IC50 (Cannabinoid receptor 1 [8]) | EC50 [9] | IC50 [10] | IC50 (Cannabinoid receptor 2 [11]) |
| --- | --- | --- | --- | --- | --- | --- | --- | --- | --- | --- | --- | --- | --- |
| CSc1nc(-c2ccc(Cl)cc2)nn1C(=O)c1ccco1 | 2.31 µM (active) | > 79.4 µM (inactive) | > 380 µM (inactive) | 0.387 µM (active) | > 79.4 µM (inactive) | > 79.4 µM (inactive) |  |  |  |  |  |  |  |
| Cc1ccc(-n2cc3c(-c4ccccc4)nnc(C)c3n2)cc1 |  |  |  |  |  |  | > 32 µM (inactive) | > 32 µM (inactive) | > 32 µM (inactive) | 8.66 µM (active) | > 32 µM (inactive) | 6.89 µM (active) | > 32 µM (inactive) |
